Experimental data: paper PMC6469224, “Tuning the properties of tris(hydroxypyridinone) ligands: efficient ^68Ga chelators for PET imaging” (Dalton Transactions (Cambridge, England : 2003), 2019)
Read-outs that look alike come from different tables or passages of the source. Each block holds one molecule with its values, some of them ahead of it.

Tests used:
[1] = Spectrophotometric titration, acid dissociation constants; assay type: physicochemical
Experimental: (§1) The THP^Me and THP^H acid dissociation and conditional formation constants for their Ga^3+ and Fe^3+ complexes were investigated by spectrophotometric measurements. pKa and pM values (defined as –log[M^3+] when [ligand]total = 10 μM, [metal]total = 1 μM and pH = 7.4) are reported in Table 2. A full list of the measured conditional formation constants is provided in the ESI (Tables S1–S3 ^†), together with speciation plots calculated for the pH range of the titration. The pKa values for THP chelators are better described as intrinsic protonation constants since they represent the average pKa values of the three hydroxypyridinone units, which could not be distinguished by UV spectrophotometric measurements.[45] The first intrinsic pKa is attributed to the carbonyl group of the HP unit, and the second to the adjacent hydroxyl group. For THP^H a third intrinsic protonation constant, pKa3, associated with deprotonation of the N^1–H group in the pyridinone ring, exists outside the pH range used. The value of pKa3 was estimated to be 13 from the spectral change of the [Fe(THP^H)] complex in the pH 10–12.5 range. The measured protonation constants for THP^H are lower than those measured for deferiprone, but slightly higher than those for THP^Me (that is, THP^Me is slightly more acidic than THP^H).
The automated titration system consists of a Metrohm 765 Dosimat autoburette, a Mettler Toledo MP230 pH meter with SENTEK pH electrode (P11), and an HP 8453 UV-visible spectrophotometer with a Hellem quartz flow cuvette, with circulation driven by a Gilson Mini-plus #3 pump (speed capability 20 mL min^–1). A potassium chloride electrolyte solution (0.1 M) was used to maintain the ionic strength. The temperature of the test solutions was maintained in a thermostatic jacketed titration vessel at 25 ± 0.1 °C, using a Fisherbrand Isotemp water bath. The pH electrodes were calibrated using the software GLEE[47] with data obtained by titrating a volumetric standard HCl (0.1 M) in KCl (0.1 M) with KOH (0.1 M) under an atmosphere of argon. Analytical grade reagent materials were used in the preparation of all solutions. The solution under investigation was stirred vigorously during the experiment. For pKa determinations, a cuvette path length of 10 mm was used, while for metal stability constants determinations, a cuvette path length of 50 mm was used (experimental concentration was ca. 40 μM for iron complexes and ca. 10 μM for gallium complexes). All instruments were interfaced to a computer and controlled by an in-house program.
The automated titration adopted the following strategy: the pH of a solution was increased in increments of 0.1 pH unit by the addition of potassium hydroxide solution (0.1 M) from the autoburette. The pH readings were judged stable if they varied by less than 0.01 pH unit after a pre-set incubation period. […] The cycle was repeated until the predefined end point pH value was achieved. Titration data were analysed with the HypSpec2014 program[48],[49] […] The fitting spectra range for iron complexes was 400–700 nm while that for gallium complexes was 250–350 nm. pH values higher than 11.3 (outside the pH range in which electrode measurements are considered accurate) were neglected and re-calculated from the added KOH quantity (using “no pH” mode within the HypSpec2014 program). […] Metal affinities of compounds in this study were determined in competition with the metal hydrolysis species in a solution at a high pH (titrated up to pH 12.5). […]

[2] = cited from earlier work
[3] = cited from earlier work; remark: listed apart in the source
[4] = Spectrophotometric determination of conditional formation constants, Fe^3+ complexes; assay type: binding
Experimental: as §1
(§2) The automated titration system consists of a Metrohm 765 Dosimat autoburette, a Mettler Toledo MP230 pH meter with SENTEK pH electrode (P11), and an HP 8453 UV-visible spectrophotometer with a Hellem quartz flow cuvette, with circulation driven by a Gilson Mini-plus #3 pump (speed capability 20 mL min^–1). A potassium chloride electrolyte solution (0.1 M) was used to maintain the ionic strength. The temperature of the test solutions was maintained in a thermostatic jacketed titration vessel at 25 ± 0.1 °C, using a Fisherbrand Isotemp water bath. […]
(§3) The automated titration adopted the following strategy: the pH of a solution was increased in increments of 0.1 pH unit by the addition of potassium hydroxide solution (0.1 M) from the autoburette. The pH readings were judged stable if they varied by less than 0.01 pH unit after a pre-set incubation period. […] Titration data were analysed with the HypSpec2014 program[48],[49] […] The fitting spectra range for iron complexes was 400–700 nm while that for gallium complexes was 250–350 nm. pH values higher than 11.3 (outside the pH range in which electrode measurements are considered accurate) were neglected and re-calculated from the added KOH quantity (using “no pH” mode within the HypSpec2014 program). […] Metal affinities of compounds in this study were determined in competition with the metal hydrolysis species in a solution at a high pH (titrated up to pH 12.5). […]

[5] = Spectrophotometric determination of conditional formation constants, Ga^3+ complexes; assay type: binding
Experimental: as §1, §2, §3

[6] = system: mouse; test: In vivo ^68Ga scavenging: acetate-buffered ^68Ga injected, then chelator; PET/CT and urine HPLC; conditions: female BALB/c mouse, THPMe at 45 minutes
Experimental: The ability of THP^H to scavenge gallium in vivo was also investigated. […] This scavenging ability, shared with THP^Me (ESI, Fig. S8 ^†), reflects the rapid complexation kinetics and the extraordinary ability to transchelate gallium (which is known to bind rapidly and almost completely to transferrin when intravenously injected[44]) rapidly in the biological milieu.
All in vivo experiments were carried out in accordance with British Home Office regulations governing animal experimentation and complied with guidelines on responsibility in the use of animals in bioscience research of the U.K. Research Councils and Medical Research Charities, under U.K. Home Office project and personal licences. […] Respiration rate and bed temperature were monitored throughout. […] All reconstructed datasets were analysed using VivoQuant 1.21 software (inviCRO), which enables the co-registration of PET and CT images and the delineation of regions of interest (ROIs) for quantification of activity in specific organs. […] Urine was collected and analysed by reversed-phase HPLC (method 3).
An E&Z generator was eluted with 5 mL of pure HCl 0.1 M (Fluka analytical) in five 1 mL fractions and their activity measured by a Capintec radionuclide dose calibrator. […]
Quantitative radiolabelling was obtained for all examined concentrations. […]

[7] = 0.1 M KCl electrolyte solution, intrinsic pKa for THP ligands (carbonyl group of HP unit), 25 °C, 0.1 M KCl, read-out: pKa1
[8] = M3+ + 2 L− ⇄ [ML2]+, repeated as control
[9] = M3+ + 3 L− ⇄ [ML3], repeated as control
[10] = M3+ + L− ⇄ [ML]2+, repeated as control
[11] = –log[M^3+] at [M]total = 1 μM, [L]total = 10 μM, pH = 7.4

pKa [1, 7]: 3.2
pKa ([1]; 0.1 M KCl electrolyte solution, intrinsic pKa for THP ligands (hydroxyl group), 25 °C, 0.1 M KCl, read-out: pKa2): 9.4
pKa ([1]; 0.1 M KCl electrolyte solution, pH 10, N^1–H deprotonation, estimated from spectral change of [Fe(THP^H)] in pH 10–12.5, read-out: pKa3): ~13
SMILES: CC(=O)NC(CCC(=O)NCc1[nH]c(C)cc(=O)c1O)(CCC(=O)NCc1[nH]c(C)cc(=O)c1O)CCC(=O)NCc1[nH]c(C)cc(=O)c1O [THP^H]

SMILES: O=C(O)CN(CCN(CC(=O)O)Cc1ccccc1O)Cc1ccccc1O [HBED, N,N-bis(2-hydroxybenzyl)ethylenediamine-N,N-diacetic acid]
log KGa [2]: 37.73
log KFe [3]: 36.74

SMILES: Cc1c(O)c(=O)ccn1C [Deferiprone]
Log β [FeL]2+ [4, 8]: 27.5
Log β [FeL3] [4, 9]: 37.5
Log β [FeL]2+ [4, 10]: 15.0
pFe [4, 11]: 20.8
pKa [1, 7]: 3.5
pKa ([1]; intrinsic pKa for THP ligands (hydroxyl group), 25 °C, 0.1 M KCl, read-out: pKa2): 9.8
Log β [GaL]2+ [5, 8]: 27.0
Log β [GaL3] [5, 9]: 37.4
Log β [GaL]2+ [5, 10]: 14.4
pGa [5, 11]: 20.7

In vivo ^68Ga binding and blood clearance after injection of the chelator [6]: able to bind 68Ga in vivo
SMILES: CC(=O)NC(CCC(=O)NCc1c(O)c(=O)cc(C)n1C)(CCC(=O)NCc1c(O)c(=O)cc(C)n1C)CCC(=O)NCc1c(O)c(=O)cc(C)n1C [THP^Me, tris(1,6-dimethyl-3-hydroxypyridin-4-one)]
